Reference: PubChem BioAssay (NCI)
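1) Cells in 96-well plates. 2) Compound, 48 h, 5 concentrations. 3) Linear interpolation between surrounding doses. 4) Unreached endpoint = highest concentration. GI50 marks 50% less growth. TGI marks complete inhibition of growth.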

What was measured:
Test in all cases: NCI anticancer screen, dose series, 48 h
[1] = system: A498 renal
[2] = system: SK-MEL-5 melanoma
[3] = system: NCI-H460 lung
[4] = system: UACC-257 melanoma
[5] = system: A549 NSCLC
[6] = system: MDA-MB-435
[7] = system: MOLT-4 leukemia
[8] = system: HS 578T breast
[9] = system: HOP-92 NSCLC
[10] = system: K-562 leukemia
[11] = system: OVCAR-3 ovarian
[12] = system: U251 CNS
[13] = system: IGROV1 ovarian
[14] = system: UACC-62 melanoma
[15] = system: RPMI-8226 leukemia
[16] = system: MALME-3M melanoma
[17] = system: SN12C renal
[18] = system: M14 melanoma
[19] = system: PC-3 prostate
[20] = system: ACHN renal
[21] = system: HCT-15 colon
[22] = system: SF-539 CNS
[23] = system: NCI-H226 lung
[24] = system: OVCAR-8 ovarian
[25] = system: CCRF-CEM leukemia
[26] = system: MDA-MB-231 breast
[27] = system: SR leukemia
[28] = system: TK-10 renal
[29] = system: CAKI-1 renal
[30] = system: SK-OV-3 ovarian
[31] = system: KM12 colon
[32] = system: SW-620 colon
[33] = system: LOX IMVI melanoma
[34] = system: DU-145 prostate
[35] = system: SF-295 CNS
[36] = system: BT-549 breast
[37] = system: OVCAR-4 ovarian
[38] = system: HCT-116 colon
[39] = system: 786-0 renal
[40] = system: HL-60(TB) leukemia
[41] = system: HT29 colon
[42] = system: SNB-19 CNS
[43] = system: SK-MEL-28 melanoma
[44] = system: NCI-H23 lung
[45] = system: UO-31 renal
[46] = system: MCF7 breast
[47] = system: EKVX NSCLC
[48] = system: SF-268 CNS
[49] = system: NCI-H522 lung
[50] = system: COLO 205 colon
[51] = system: SNB-75 CNS
[52] = system: SK-MEL-2 melanoma
[53] = system: HCC-2998 colon
[54] = system: NCI/ADR-RES ovarian
[55] = system: OVCAR-5 ovarian
[56] = system: RXF 393 renal
[57] = system: HOP-62 NSCLC
[58] = system: T-47D breast

Structure (SMILES): c1ccc2c(c1)ccc1cc3cc(NCCCCNc4ccc5nc6c(ccc7ccccc76)cc5c4)ccc3nc12
- TGI [1]: 2430 nM
- TGI [2]: 2670 nM
- TGI [3]: 0.53 µM
- TGI [4]: 3.11 µM
- TGI [5]: 2.84 µM
- TGI [6]: 3.45 µM
- TGI [7]: 0.418 µM
- TGI [8]: 4.25 µM
- TGI [9]: 4.09 µM
- TGI [10]: 3.55 µM
- TGI [11]: 4.06 µM
- TGI [12]: 0.374 µM
- TGI [13]: 2.99 µM
- TGI [14]: 3.04 µM
- TGI [15]: 1480 nM
- TGI [16]: 3.16 µM
- TGI [17]: 2.7 µM
- TGI [18]: 3.29 µM
- TGI [19]: 2.67 µM
- TGI [20]: 2.68 µM
- TGI [21]: 2.01 µM
- TGI [22]: 2880 nM
- TGI [23]: 3.24 µM
- TGI [24]: 0.303 µM
- TGI [25]: 2.29 µM
- TGI [26]: 348 nM
- TGI [27]: 0.043 µM
- TGI [28]: 3.18 µM
- TGI [29]: 3540 nM
- TGI [30]: 6.34 µM
- TGI [31]: 0.532 µM
- TGI [32]: 0.405 µM
- TGI [33]: 3.43 µM
- TGI [34]: 2670 nM
- TGI [35]: 3.03 µM
- TGI [36]: 4.06 µM

Structure (SMILES): CC(C)(C)[C@H]1NC(=O)CN1C(=O)OCc1ccccc1
- TGI [37]: > 100 µM
- TGI [38]: > 100 µM
- TGI [1]: 54900 nM
- TGI [2]: > 100000 nM
- TGI [3]: > 100 µM
- TGI [4]: > 100 µM
- TGI [5]: > 100 µM
- TGI [39]: > 100 µM
- TGI [40]: > 100 µM
- TGI [6]: > 100 µM
- TGI [41]: > 100 µM
- TGI [7]: > 100 µM
- TGI [9]: 31.9 µM
- TGI [42]: > 100 µM
- TGI [10]: > 100 µM
- TGI [12]: > 100 µM
- TGI [13]: > 100 µM
- TGI [43]: > 100 µM
- TGI [14]: > 100 µM
- TGI [44]: > 100 µM
- TGI [15]: > 100000 nM
- TGI [45]: > 100 µM
- TGI [16]: > 100 µM
- TGI [46]: > 100 µM
- TGI [17]: > 100 µM
- TGI [18]: > 100 µM
- TGI [47]: > 100 µM
- TGI [19]: > 100 µM
- TGI [20]: > 100 µM
- TGI [21]: > 100 µM
- TGI [22]: > 100000 nM
- TGI [48]: > 100 µM
- TGI [49]: > 100 µM
- TGI [50]: > 100 µM
- TGI [23]: > 100 µM
- TGI [24]: > 100 µM
- TGI [25]: > 100 µM
- TGI [26]: > 100000 nM
- TGI [27]: > 100 µM
- TGI [51]: > 100 µM
- TGI [52]: > 100 µM
- TGI [28]: > 100 µM
- TGI [53]: > 100000 nM
- TGI [30]: > 100 µM
- TGI [31]: > 100 µM
- TGI [32]: > 100 µM
- TGI [33]: > 100 µM
- TGI [34]: > 100000 nM
- TGI [35]: > 100 µM
- TGI [54]: > 100 µM
- TGI [55]: > 100 µM
- TGI [36]: > 100 µM
- TGI [56]: > 100 µM
- TGI [57]: > 100 µM
- TGI [58]: > 100 µM

Structure (SMILES): CC[C@]1(O)C[C@@H]2CN(CCc3c([nH]c4ccccc34)[C@@](C(=O)OC)(c3cc4c(cc3OC)N(C)[C@H]3[C@@](O)(C(=O)OC)[C@H](OC(=O)CCCBr)[C@]5(CC)C=CCN6CC[C@]43[C@@H]65)C2)C1
- TGI [37]: 33.5 µM
- GI50 [38]: < 10 nM
- TGI [38]: > 32.4 µM
- GI50 [1]: < 11.4 nM
- TGI [1]: < 25.8 nM
- GI50 [3]: 24.5 nM
- TGI [3]: > 100 µM
- GI50 [4]: 3.27 µM
- TGI [4]: > 100 µM
- GI50 [5]: < 16.6 nM
- TGI [5]: > 100 µM
- GI50 [39]: 53.5 nM
- TGI [39]: > 33.1 µM
- GI50 [6]: < 10 nM
- TGI [6]: < 0.01 µM
- GI50 [41]: < 10 nM
- TGI [41]: > 100 µM
- GI50 [7]: 26 nM
- TGI [7]: > 100 µM
- GI50 [8]: < 18.5 nM
- GI50 [9]: 87.7 nM
- TGI [9]: 3.53 µM
- GI50 [42]: < 21.5 nM
- TGI [42]: > 100 µM
- GI50 [10]: < 10 nM
- TGI [10]: > 100 µM
- GI50 [11]: < 10 nM
- TGI [11]: < 0.0126 µM
- GI50 [12]: 33.4 nM
- TGI [12]: > 100 µM
- GI50 [13]: 26.3 nM
- TGI [13]: > 100 µM
- GI50 [14]: < 10 nM
- TGI [14]: > 100 µM
- GI50 [44]: < 20.4 nM
- TGI [44]: > 100 µM
- GI50 [15]: < 10 nM
- TGI [15]: 492 nM
- GI50 [45]: 196 nM
- TGI [45]: 6.55 µM
- GI50 [46]: < 10 nM
- TGI [46]: > 100 µM
- GI50 [17]: 46 nM
- TGI [17]: > 100 µM
- GI50 [18]: 54.3 nM
- TGI [18]: 25.9 µM
- GI50 [47]: 336 nM
- TGI [47]: > 100 µM
- GI50 [19]: 14.1 nM
- TGI [19]: 14.3 µM
- GI50 [20]: 108 nM
- TGI [20]: > 100 µM
- GI50 [21]: 120 nM
- TGI [21]: > 100 µM
- GI50 [48]: 197 nM
- TGI [48]: 17.5 µM
- GI50 [23]: 5.87 µM
- TGI [23]: 99.7 µM
- GI50 [24]: < 20.9 nM
- TGI [24]: > 100 µM
- GI50 [25]: 23.2 nM
- TGI [25]: > 100 µM
- GI50 [27]: < 10 nM
- TGI [27]: > 100 µM
- GI50 [51]: < 10 nM
- TGI [51]: < 0.01 µM
- GI50 [52]: 33.1 nM
- TGI [52]: > 100 µM
- GI50 [28]: 2000 nM
- TGI [28]: > 100 µM
- GI50 [53]: 13.2 nM
- TGI [53]: 1310 nM
- GI50 [29]: < 20.6 nM
- TGI [29]: 2120 nM
- GI50 [30]: 306 nM
- TGI [30]: > 22.2 µM
- GI50 [31]: < 16.3 nM
- TGI [31]: 3.84 µM
- GI50 [32]: < 14.6 nM
- TGI [32]: > 100 µM
- GI50 [34]: < 10 nM
- TGI [34]: 1430 nM
- GI50 [54]: 986 nM
- TGI [54]: > 100 µM
- GI50 [55]: < 23 nM
- TGI [55]: > 100 µM
- GI50 [36]: 63.7 nM
- TGI [36]: 10.1 µM
- GI50 [56]: < 10 nM
- TGI [56]: < 0.01 µM
- GI50 [57]: 38.6 nM
- TGI [57]: > 100 µM
